Measured values published in patent US20240124408A1 (Sanofi, priority 2020, published 2024).

Key:
human TRPM8 = target: T1, human TRPM8 (Homo sapiens, UniProt Q7Z2W7); experiment: In vitro human TRPM8 fluorescence calcium flux assay (recombinant CHO cells, Fluo4-AM, FDSS6000); type: cell-based; conditions: recombinant CHO cells expressing human TRPM8; menthol-related EC50, normalized to 100 μM menthol
T1 construct: expressed in transfected cells; host or cells: CHO (p658 mammalian expression vector)
T1 sequence (Q7Z2W7 whole entry): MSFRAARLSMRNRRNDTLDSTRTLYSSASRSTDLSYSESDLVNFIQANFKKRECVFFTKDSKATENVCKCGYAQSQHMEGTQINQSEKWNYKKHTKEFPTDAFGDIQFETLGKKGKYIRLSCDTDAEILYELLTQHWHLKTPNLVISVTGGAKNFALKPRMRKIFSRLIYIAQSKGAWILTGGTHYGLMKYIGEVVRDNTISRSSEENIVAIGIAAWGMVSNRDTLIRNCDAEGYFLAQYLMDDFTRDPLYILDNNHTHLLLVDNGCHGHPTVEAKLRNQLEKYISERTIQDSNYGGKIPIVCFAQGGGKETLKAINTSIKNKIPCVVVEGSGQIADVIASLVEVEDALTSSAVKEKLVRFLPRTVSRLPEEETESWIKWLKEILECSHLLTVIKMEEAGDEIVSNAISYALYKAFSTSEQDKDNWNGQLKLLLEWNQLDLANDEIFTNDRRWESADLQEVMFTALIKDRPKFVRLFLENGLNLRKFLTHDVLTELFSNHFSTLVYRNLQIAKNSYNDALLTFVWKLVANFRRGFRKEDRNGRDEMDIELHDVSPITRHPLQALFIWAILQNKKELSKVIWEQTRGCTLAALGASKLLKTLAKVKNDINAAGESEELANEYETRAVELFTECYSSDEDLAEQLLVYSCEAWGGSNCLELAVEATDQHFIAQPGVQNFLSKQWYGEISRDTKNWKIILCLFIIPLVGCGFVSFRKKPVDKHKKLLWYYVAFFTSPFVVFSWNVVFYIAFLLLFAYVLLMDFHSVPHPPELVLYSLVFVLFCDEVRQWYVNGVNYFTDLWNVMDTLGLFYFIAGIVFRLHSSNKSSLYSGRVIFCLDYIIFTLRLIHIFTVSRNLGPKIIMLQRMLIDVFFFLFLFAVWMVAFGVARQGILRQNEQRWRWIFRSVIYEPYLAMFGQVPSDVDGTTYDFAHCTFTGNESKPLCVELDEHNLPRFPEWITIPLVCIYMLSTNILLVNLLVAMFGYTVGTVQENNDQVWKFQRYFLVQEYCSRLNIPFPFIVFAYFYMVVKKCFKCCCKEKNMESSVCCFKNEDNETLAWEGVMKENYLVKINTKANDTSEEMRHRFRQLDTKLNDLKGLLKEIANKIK
Description: (§1) In Vitro Pig and Human TRPM8 Fluorescence Calcium Flux Assays
(§2) For functional expression of TRPM8, the full-length cDNA encoding human (NM_024080) and pig (XM_001927892.1) TRPM8 sequences were subcloned into p658 and pcDNA5/FRT/TO mammalian expression vectors, respectively. Engineered recombinant CHO cell lines expressing human or pig TRPM8 were generated. Culture media was Ham-F12 with 10% FCS for both lines, and for the pig cell line only 400 μg/ml hygromycin B and 30 μg/mL blasticidin were added as selection antibiotics (all reagents were obtained from Invitrogen, Fisher Scientific). Cells were grown in culture flasks up to 80% confluence where they were harvested using accutase (Sigma, MO, USA) to detach the cells by enzymatic dissociation and either seeded directly into assay plates or cryopreserved for future use.
(§3) For calcium flux assays, cells were plated into clear base poly-D-lysine coated 384-well plates (BD Biosciences, NJ USA) at a density of 15,000 cells per well in appropriate culture medium and grown overnight. The following day, all medium was removed then the cells were incubated with 2 μM of Fluo4-AM Dye (Molecular Probes) prepared in complete HBSS assay buffer containing 20 mM HEPES, 0.1% BSA, and 2.5 mM probenecid at room temperature for one hour. Following incubation, plates were inserted into a FDSS6000 instrument (Hamamatsu, Photonics, Japan) instrument, where cells were challenged with compounds of the formula (at varying concentrations) and intracellular calcium was measured kinetically for 3 min after addition.
(§4) This protocol allowed the determination of an EC50 value, from the sixteen-point dose response data, for each compound of the formula tested. Maximal fluorescence intensity achieved upon addition of 100 μM menthol (stock solution prepared in ethanol from solid, Sigma-Aldrich) was exported from the FDSS and further analyzed using IDBS XLFit 5. Data were normalized to the average 100 μM menthol response (maximum control wells) included in each plate. The dose response curves from the average of wells for each data point were analyzed by using nonlinear regression of sigmoidal dose response (formula 205). Finally, the (menthol-related) EC50 values (Half maximal effective concentration) were calculated with the best-fit dose curve determined by IDBS XLFit 5 software.

pig TRPM8 = target: T2, pig TRPM8 (Sus scrofa, UniProt F1SM15); experiment: In vitro pig TRPM8 fluorescence calcium flux assay (recombinant CHO cells, Fluo4-AM, FDSS6000); type: cell-based; conditions: recombinant CHO cells expressing pig TRPM8; menthol-related EC50, normalized to 100 μM menthol
T2 construct: expressed in transfected cells; host or cells: CHO (pcDNA5/FRT/TO vector; hygromycin B and blasticidin selection)
T2 sequence (F1SM15 1-1104): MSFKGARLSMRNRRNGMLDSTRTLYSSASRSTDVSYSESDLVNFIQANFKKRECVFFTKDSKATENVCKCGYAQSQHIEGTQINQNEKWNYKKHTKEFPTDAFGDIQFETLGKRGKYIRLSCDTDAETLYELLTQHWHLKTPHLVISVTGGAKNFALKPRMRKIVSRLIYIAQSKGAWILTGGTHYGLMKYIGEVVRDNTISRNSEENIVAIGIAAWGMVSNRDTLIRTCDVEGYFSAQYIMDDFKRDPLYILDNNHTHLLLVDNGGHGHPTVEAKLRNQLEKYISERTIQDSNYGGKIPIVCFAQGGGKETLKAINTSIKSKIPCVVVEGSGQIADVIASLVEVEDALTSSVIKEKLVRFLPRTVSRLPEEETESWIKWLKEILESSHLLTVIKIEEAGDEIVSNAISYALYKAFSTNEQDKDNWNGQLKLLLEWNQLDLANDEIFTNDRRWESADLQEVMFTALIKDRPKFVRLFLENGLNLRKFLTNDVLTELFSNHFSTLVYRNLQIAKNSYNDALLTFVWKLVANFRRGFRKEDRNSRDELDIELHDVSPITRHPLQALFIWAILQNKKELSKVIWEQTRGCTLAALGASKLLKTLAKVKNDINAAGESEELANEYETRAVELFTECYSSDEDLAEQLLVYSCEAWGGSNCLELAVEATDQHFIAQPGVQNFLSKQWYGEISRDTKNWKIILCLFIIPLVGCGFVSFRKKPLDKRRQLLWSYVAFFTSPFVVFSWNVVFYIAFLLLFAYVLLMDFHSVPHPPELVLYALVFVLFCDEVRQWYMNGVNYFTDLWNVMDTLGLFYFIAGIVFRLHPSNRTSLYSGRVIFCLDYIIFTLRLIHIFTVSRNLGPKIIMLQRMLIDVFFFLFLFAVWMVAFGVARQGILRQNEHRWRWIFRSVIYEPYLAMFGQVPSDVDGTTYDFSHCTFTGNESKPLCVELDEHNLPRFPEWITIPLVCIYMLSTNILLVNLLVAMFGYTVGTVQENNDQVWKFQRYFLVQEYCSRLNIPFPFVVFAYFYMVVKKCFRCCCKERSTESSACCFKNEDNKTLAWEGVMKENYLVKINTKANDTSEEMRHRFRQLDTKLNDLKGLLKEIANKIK
Description: as §1, §2, §3, §4

| SMILES | EC50 (human TRPM8) [nM] | EC50 (pig TRPM8) [nM] |
| --- | --- | --- |
| CC(=O)NCCOc1ccccc1CCNC(=O)[C@]1(O)C[C@H](C)CC[C@H]1C(C)C [Example 84, (1S,2S,5R)—N-(2-(2-acetamidoethoxy)phenethyl)-1-hydroxy-2-isopropyl-5-methylcyclohexane-1-carboxamide] | 143 | 141 |
| CC(C)[C@@H]1CC[C@@H](C)C[C@@]1(O)C(=O)NCCc1cccc(CCC(=O)O)c1 [Example 87, 3-(3-(2-((1S,2S,5R)-1-hydroxy-2-isopropyl-5-methylcyclohexane-1-carboxamido)ethyl)phenyl)propanoic acid] | 982 | 259 |
| CC(C)[C@@H]1CC[C@@H](C)C[C@@]1(O)C(=O)N[C@H]1COc2ccccc2C1 [Example 95, (1S,2S,5R)—N-((3R)-chroman-3-yl)-1-hydroxy-2-isopropyl-5-methylcyclohexane-1-carboxamide] | 3.6 | 3.1 |
| COc1ccc(C(=O)CNC(=O)[C@]2(O)C[C@H](C)CC[C@H]2C(C)C)c(OC)c1 [Example 99, (1S,2S,5R)—N-(2-(2,4-dimethoxyphenyl)-2-oxoethyl)-1-hydroxy-2-isopropyl-5-methylcyclohexane-1-carboxamide] | 110 | 99.1 |
| CC(C)[C@@H]1CC[C@@H](C)C[C@@]1(O)C(=O)NCC(=O)c1ccc(O)c(O)c1 [Example 100, (1S,2S,5R)—N-(2-(3,4-dihydroxyphenyl)-2-oxoethyl)-1-hydroxy-2-isopropyl-5-methylcyclohexane-1-carboxamide] | 2.2 | 2.9 |
| CC(C)[C@@H]1CC[C@@H](C)C[C@@]1(O)C(=O)NCC1(c2cccc(COC3CCCCO3)c2)COC1 (stereo partly drawn) [Example 101, (1S,2S,5R)-1-hydroxy-2-isopropyl-5-methyl-N-((3-(3-(((tetrahydro-2H-pyran-2-yl)oxy)methyl)phenyl)oxetan-3-yl)methyl)cyclohexane-1-carboxamide] | 376 | 174 |
| CC(C)[C@@H]1CC[C@@H](C)C[C@@]1(O)C(=O)NCC(=O)c1ccc(O)cc1O [Example 102, (1S,2S,5R)—N-(2-(2,4-dihydroxyphenyl)-2-oxoethyl)-1-hydroxy-2-isopropyl-5-methylcyclohexane-1-carboxamide] | 42 | 69 |
| CC(C)[C@@H]1CC[C@@H](C)C[C@@]1(O)C(=O)NCC1CCOc2ccccc21 (stereo partly drawn) [Example 103, (1S,2S,5R)—N-(chroman-4-ylmethyl)-1-hydroxy-2-isopropyl-5-methylcyclohexane-1-carboxamide] | 18.8 | 14.9 |
| CC(C)[C@@H]1CC[C@@H](C)C[C@@]1(O)C(=O)NCC(=O)c1cccc(O)c1O [Example 104, (1S,2S,5R)—N-(2-(2,3-dihydroxyphenyl)-2-oxoethyl)-1-hydroxy-2-isopropyl-5-methylcyclohexane-1-carboxamide] | 1.1 | 0.6 |
| CC(C)[C@@H]1CC[C@@H](C)C[C@@]1(O)C(=O)NCCc1cccc(C(=O)OC[C@H](C)O)c1 [Example 105, (S)-2-hydroxypropyl 3-(2-((1S,2S,5R)-1-hydroxy-2-isopropyl-5-methylcyclohexane-1-carboxamido)ethyl)benzoate] | 30.8 | 28.4 |
| CC(C)[C@@H]1CC[C@@H](C)C[C@@]1(O)C(=O)NC1CCOC1=O (stereo partly drawn) [Example 112, (1S,2S,5R)-1-hydroxy-2-isopropyl-5-methyl-N-(2-oxotetrahydrofuran-3-yl)cyclohexane-1-carboxamide] | 1580 | 892 |
| COc1cc(CCNC(=O)[C@]2(O)C[C@H](C)CC[C@H]2C(C)C)ccc1O [Example 114, (1S,2S,5R)-1-hydroxy-N-[2-(4-hydroxy-3-methoxy-phenyl)ethyl]-2-isopropyl-5-methyl-cyclohexanecarboxamide] | 59.8 | 28.2 |
| COc1cccc(CCNC(=O)[C@]2(O)C[C@H](C)CC[C@H]2C(C)C)c1OC [Example 115, (1S,2S,5R)-N-[2-(2,3-dimethoxyphenyl)ethyl]-1-hydroxy-2-isopropyl-5-methyl-cyclohexanecarboxamide] | 786 | 362 |
| CC(C)[C@@H]1CC[C@@H](C)C[C@@]1(O)C(=O)NCCc1ccc(S(N)(=O)=O)cc1 [Example 118, (1S,2S,5R)-1-hydroxy-2-isopropyl-5-methyl-N-[2-(4-sulfamoylphenyl)ethyl]cyclohexanecarboxamide] | 557 | 264 |
| COc1ccc(C(=O)CNC(=O)[C@]2(O)C[C@H](C)CC[C@H]2C(C)C)cc1 [Example 121, (1S,2S,5R)-1-hydroxy-2-isopropyl-N-[2-(4-methoxyphenyl)-2-oxo-ethyl]-5-methyl-cyclohexanecarboxamide] | 18.7 | 4.9 |
| COc1cc(CCNC(=O)[C@]2(O)C[C@H](C)CC[C@H]2C(C)C)cc(OC)c1 [Example 123, (1S,2S,5R)-N-[2-(3,5-dimethoxyphenyl)ethyl]-1-hydroxy-2-isopropyl-5-methyl-cyclohexanecarboxamide] | 334 | 229 |
| COc1ccc(CCNC(=O)[C@]2(O)C[C@H](C)CC[C@H]2C(C)C)cc1O [Example 126, (1S,2S,5R)-1-hydroxy-N-[2-(3-hydroxy-4-methoxy-phenyl)ethyl]-2-isopropyl-5-methyl-cyclohexanecarboxamide] | 92.5 | 25.7 |
| Cc1cccnc1CCNC(=O)[C@]1(O)C[C@H](C)CC[C@H]1C(C)C [Example 127, (1S,2S,5R)-1-hydroxy-2-isopropyl-5-methyl-N-[2-(3-methyl-2-pyridyl)ethyl]cyclohexanecarboxamide] | 359 | 152 |
| COc1ccc(OC)c(CCNC(=O)[C@]2(O)C[C@H](C)CC[C@H]2C(C)C)c1 [Example 128, (1S,2S,5R)-N-[2-(2,5-dimethoxyphenyl)ethyl]-1-hydroxy-2-isopropyl-5-methyl-cyclohexanecarboxamide] | 303 | 212 |
| COc1cc(CCNC(=O)[C@]2(O)C[C@H](C)CC[C@H]2C(C)C)cc(OC)c1O [Example 130, (1S,2S,5R)-1-hydroxy-N-[2-(4-hydroxy-3,5-dimethoxy-phenyl)ethyl]-2-isopropyl-5-methyl-cyclohexanecarboxamide] | 433 | 185 |
| CC(C)[C@@H]1CC[C@@H](C)C[C@@]1(O)C(=O)NCCc1cnccn1 [Example 131, (1S,2S,5R)-1-hydroxy-2-isopropyl-5-methyl-N-(2-pyrazin-2-ylethyl)cyclohexanecarboxamide] | 603 | 267 |
| CC(C)[C@@H]1CC[C@@H](C)C[C@@]1(O)C(=O)NCC(=O)OCc1ccccc1 [Example 132, benzyl 2-[[(1S,2S,5R)-1-hydroxy-2-isopropyl-5-methyl-cyclohexanecarbonyl]amino]acetate] | 303 | 79.1 |
| CC(C)[C@@H]1CC[C@@H](C)C[C@@]1(O)C(=O)NCCc1cccc(S(N)(=O)=O)c1 [Example 133, (1S,2S,5R)-1-hydroxy-2-isopropyl-5-methyl-N-[2-(3-sulfamoylphenyl)ethyl]cyclohexanecarboxamide] | 140 | 72.2 |
| CC(C)[C@@H]1CC[C@@H](C)C[C@@]1(O)C(=O)NCC(=O)c1ccc(Cl)cc1 [Example 134, (1S,2S,5R)-N-[2-(4-chlorophenyl)-2-oxo-ethyl]-1-hydroxy-2-isopropyl-5-methyl-cyclohexanecarboxamide] | 3.4 | 1.3 |
